Legend:
Assay in all cases: Postemergence foliar-applied greenhouse weed control, direct-seeded rice system
CYPIR = format: in vivo, Cyperus iria L.
Source text: Seeds or nutlets of the desired test plant species were planted in a soil matrix prepared by mixing a loam or sandy loam soil (e.g., 28.6 percent silt, 18.8 percent clay, and 52.6 percent sand, with a pH of about 5.8 and an organic matter content of about 1.8 percent) and calcareous grit in an 80 to 20 ratio. The soil matrix was contained in plastic pots with a volume of 1 quart and a surface area of 83.6 square centimeters (cm^2). When required to ensure good germination and healthy plants, a fungicide treatment and/or other chemical or physical treatment was applied. The plants were grown for 8-22 days in a greenhouse with an approximate 14 h photoperiod which was maintained at about 29° C. during the day and 26° C. during the night. Nutrients (Peters Excel® 15-5-15 5-Ca 2-Mg and iron chelate) were applied in the irrigation solution as needed and water was added on a regular basis. Supplemental lighting was provided with overhead metal halide 1000-Watt lamps as necessary. The plants were employed for testing when they reached the first through fourth true leaf stage. […]
(§1) Treatment requirements were calculated based upon the rates being tested, the concentration of active ingredient or acid equivalent in the formulation, and a 12 mL application volume at a rate of 187 L/ha.
For treatments comprised of formulated compounds, measured amounts of compounds were placed individually in 25 mL glass vials and diluted in a volume of 1.25% (v/v) Agri-Dex® crop oil concentrated to obtain 12× stock solutions. […]
For treatments comprised of formulated and technical compounds, weighed amounts of the technical materials were placed individually in 25 mL glass vials and dissolved in a volume of 97:3 v/v acetone/DMSO to obtain 12× stock solutions, and measured amounts of the formulated compounds were placed individually in 25 mL glass vials and diluted in a volume of 1.5% (v/v) crop oil concentrate or water to obtain 12× stock solutions. […]

ECHCG = format: in vivo, Echinochloa crusgalli (L.) Beauv.
Source text: (§2) Seeds or nutlets of the desired test plant species were planted in a soil matrix prepared by mixing a loam or sandy loam soil (e.g., 28.6 percent silt, 18.8 percent clay, and 52.6 percent sand, with a pH of about 5.8 and an organic matter content of about 1.8 percent) and calcareous grit in an 80 to 20 ratio. The soil matrix was contained in plastic pots with a volume of 1 quart and a surface area of 83.6 square centimeters (cm^2). When required to ensure good germination and healthy plants, a fungicide treatment and/or other chemical or physical treatment was applied. The plants were grown for 8-22 days in a greenhouse with an approximate 14 h photoperiod which was maintained at about 29° C. during the day and 26° C. during the night. Nutrients (Peters Excel® 15-5-15 5-Ca 2-Mg and iron chelate) were applied in the irrigation solution as needed and water was added on a regular basis. Supplemental lighting was provided with overhead metal halide 1000-Watt lamps as necessary. The plants were employed for testing when they reached the first through fourth true leaf stage.
(§3) Treatments consisted of the acid or esters of 4-amino-3-chloro-5-fluoro-6-(4-chloro-2-fluoro-3-methoxy-phenyl)pyridine-2-carboxylic acid (Compound A), each formulated as an SC (suspension concentrate), and various herbicidal components alone and in combination. Forms of compound A were applied on an acid equivalent basis.
(§4) Other herbicidal components were applied on an active ingredient basis and included diamuron formulated as an EC (emulsifiable concentrate) and oxaziclomefone (technical grade material).
as §1
(§5) For treatments comprised of formulated compounds, measured amounts of compounds were placed individually in 25 mL glass vials and diluted in a volume of 1.25% (v/v) Agri-Dex® crop oil concentrated to obtain 12× stock solutions. […] Application solutions were prepared by adding an appropriate amount of each stock solution (e.g., 1 mL) and diluted to the appropriate final concentrations with the addition of 10 mL of an aqueous mixture of 1.25% (v/v) crop oil concentrate so that the final spray solutions contained 1.25+/−0.05% (v/v) crop oil concentrate.
(§6) For treatments comprised of technical compounds, weighed amounts can be placed individually in 25 mL glass vials and dissolved in a volume of 97:3 v/v acetone/DMSO to obtain 12× stock solutions. […] Application solutions can be prepared by adding an appropriate amount of each stock solution (e.g., 1 mL) and diluted to the appropriate final concentrations with the addition of 10 mL of an aqueous mixture of 1.5% (v/v) crop oil concentrate so that the final spray solutions contain 1.25% (v/v) crop oil concentrate. When technical materials are used, the concentrated stock solutions can be added to the spray solutions so that the final acetone and DMSO concentrations of the application solutions are 16.2% and 0.5%, respectively.
(§7) For treatments comprised of formulated and technical compounds, weighed amounts of the technical materials were placed individually in 25 mL glass vials and dissolved in a volume of 97:3 v/v acetone/DMSO to obtain 12× stock solutions, and measured amounts of the formulated compounds were placed individually in 25 mL glass vials and diluted in a volume of 1.5% (v/v) crop oil concentrate or water to obtain 12× stock solutions. […] Application solutions were prepared by adding an appropriate amount of each stock solution (e.g., 1 mL) and diluted to the appropriate final concentrations with the addition of an appropriate amount of an aqueous mixture of 1.5% (v/v) crop oil concentrate so that the final spray solutions contained 1.25% (v/v) crop oil concentrate. […]

BRAPP = format: in vivo
Source text: as §2, §3, §4, §1, §5, §6, §7

[1] = Compound A Benzyl Ester 4.38 gae/ha alone
[2] = Compound A Benzyl Ester 8.75 gae/ha alone

## COc1c(Cl)ccc(-c2nc(C(=O)OCc3ccccc3)c(Cl)c(N)c2F)c1F [Compound A Benzyl Ester]
CYPIR; [1]
  Visual Weed Control (%) - 22 DAA CYPIR Obs: 25%
CYPIR; [2]
  Visual Weed Control (%) - 22 DAA CYPIR Obs: 50%
ECHCG; [1]
  Visual Weed Control (%) - 20 DAA ECHCG Obs: 40%
ECHCG; [2]
  Visual Weed Control (%) - 20 DAA ECHCG Obs: 90%
BRAPP; [1]
  Visual Weed Control (%) - 20 DAA BRAPP Obs: 50%
BRAPP; [2]
  Visual Weed Control (%) - 20 DAA BRAPP Obs: 70%
